Measurements from the CheMixHub viscosity set.

Assay: xn = mol fraction of the nth substance listed

Clc1cccc2ccccc12 + c1ccccc1
viscosity [mPa·s], 101.33 kPa
Details	x1 = 0.0989	x1 = 0.2022	x1 = 0.3275	x1 = 0.3981	x1 = 0.5035	x1 = 0.5982	x1 = 0.7022	x1 = 0.7973	x1 = 0.8976
298.15 K	0.655	0.792	0.96	1.078	1.294	1.475	1.731	2.022	2.38
303.15 K	0.609	0.727	0.903	0.994	1.188	1.349	1.586	1.833	2.126
308.15 K	0.571	0.679	0.843	0.922	1.098	1.242	1.452	1.669	1.928

Clc1ccccc1 + c1ccccc1
Details	viscosity [mPa·s]
293.15 K, 101.33 kPa, x1 = 0.143	0.6759
293.3 K, 101.33 kPa, x1 = 0.028	0.6845
293.55 K, 101.33 kPa, x1 = 0.232	0.711
293.65 K, 101.33 kPa, x1 = 0.318	0.7337
298.15 K, 101 kPa, x1 = 0.08	0.613
298.15 K, 101 kPa, x1 = 0.121	0.62
298.15 K, 101 kPa, x1 = 0.162	0.623
298.15 K, 101 kPa, x1 = 0.8	0.718
298.15 K, 101 kPa, x2 = 0.1034	0.7546
298.15 K, 101 kPa, x2 = 0.2016	0.7369
298.15 K, 101 kPa, x2 = 0.303	0.7233
298.15 K, 101 kPa, x2 = 0.4022	0.7072
298.15 K, 101 kPa, x2 = 0.4985	0.6923
298.15 K, 101 kPa, x2 = 0.6048	0.6743
298.15 K, 101 kPa, x2 = 0.6994	0.6625
298.15 K, 101 kPa, x2 = 0.8033	0.6462
298.15 K, 101 kPa, x2 = 0.9031	0.632
303.15 K, 101 kPa, x2 = 0.1126	0.7
303.15 K, 101 kPa, x2 = 0.2016	0.6977
303.15 K, 101 kPa, x2 = 0.2221	0.6855
303.15 K, 101 kPa, x2 = 0.303	0.6794
303.15 K, 101 kPa, x2 = 0.3286	0.6713
303.15 K, 101 kPa, x2 = 0.4322	0.6573
303.15 K, 101 kPa, x2 = 0.4985	0.652
303.15 K, 101 kPa, x2 = 0.5331	0.6432
303.15 K, 101 kPa, x2 = 0.6048	0.6347
303.15 K, 101 kPa, x2 = 0.6314	0.6285
303.15 K, 101 kPa, x2 = 0.6994	0.6217
303.15 K, 101 kPa, x2 = 0.7271	0.6127
303.15 K, 101 kPa, x2 = 0.8033	0.6064
303.15 K, 101 kPa, x2 = 0.8204	0.5964
303.15 K, 101 kPa, x2 = 0.9031	0.5883
303.15 K, 101 kPa, x2 = 0.9113	0.5798
303.15 K, 101.33 kPa, x1 = 0.143	0.6027
308.15 K, 101 kPa, x1 = 0.08	0.537
308.15 K, 101 kPa, x1 = 0.121	0.544
308.15 K, 101 kPa, x1 = 0.162	0.547
308.15 K, 101 kPa, x2 = 0.303	0.6411
308.15 K, 101 kPa, x2 = 0.4022	0.6281
308.15 K, 101 kPa, x2 = 0.4985	0.6109
308.15 K, 101 kPa, x2 = 0.6048	0.5958
308.15 K, 101 kPa, x2 = 0.6994	0.5832
308.15 K, 101 kPa, x2 = 0.8033	0.5679
308.15 K, 101 kPa, x2 = 0.9031	0.5512
313.05 K, 101.33 kPa, x1 = 0.318	0.5743
313.15 K, 101 kPa, x2 = 0.303	0.6041
313.15 K, 101 kPa, x2 = 0.4022	0.5902
313.15 K, 101 kPa, x2 = 0.4985	0.5747
313.15 K, 101 kPa, x2 = 0.6048	0.5628
313.15 K, 101 kPa, x2 = 0.6994	0.5482
313.15 K, 101 kPa, x2 = 0.8033	0.5333
313.15 K, 101 kPa, x2 = 0.9031	0.5146
313.15 K, 101.33 kPa, x1 = 0.028	0.5278
313.15 K, 101.33 kPa, x1 = 0.411	0.5831
313.25 K, 101.33 kPa, x1 = 0.143	0.54
313.25 K, 101.33 kPa, x1 = 0.232	0.5469
313.25 K, 101.33 kPa, x1 = 0.707	0.6187
313.35 K, 101.33 kPa, x1 = 0.512	0.593
313.75 K, 101.33 kPa, x1 = 0.073	0.5223
313.75 K, 101.33 kPa, x1 = 0.568	0.5979
313.75 K, 101.33 kPa, x1 = 0.849	0.6472
318.15 K, 101 kPa, x1 = 0.08	0.475
318.15 K, 101 kPa, x1 = 0.121	0.482
318.15 K, 101 kPa, x1 = 0.162	0.486
322.85 K, 101.33 kPa, x1 = 0.143	0.5005
323.15 K, 101 kPa, x1 = 0.08	0.444
323.15 K, 101 kPa, x1 = 0.121	0.451
323.15 K, 101 kPa, x1 = 0.162	0.454
323.15 K, 101 kPa, x1 = 0.8	0.541
